According to patent US20150284342A1, “BIS(FLUOROALKYL)-1,4-BENZODIAZEPINONE COMPOUNDS” (BRISTOL-MYERS SQUIBB COMPANY, priority 2011, published 2015):
Read-outs that look alike come from different tables or passages of the source.

Columns and labels:
Notch 1 = assay: Notch-CBF1 Transactivation Assay (Notch 1); assay type: cell-based
Excerpt: (§1) Table 12 denotes respective DNA quantity for the transfections.
(§2) Duplicates were used for each sample.

Notch 3 = assay: Notch-CBF1 Transactivation Assay (Notch 3); assay type: cell-based
Excerpt: as §1, §2

[1] = High Throughput (HT) Metabolic Stability Panel, human liver microsomes
Description: (§3) Each compound was tested in duplicate.

[2] = High Throughput (HT) Metabolic Stability Panel, mouse liver microsomes
Description: as §3

[3] = read-out: Notch 1 (IC50), HeLa cells, luciferase, rounded to 2 digits
[4] = read-out: Notch 3 (IC50), HeLa cells, luciferase, rounded to 2 digits
[5] = 0.5 μM compound, human liver microsomes, 10 min incubation
[6] = 0.5 μM compound, mouse liver microsomes, 10 min incubation
[7] = HeLa cells, luciferase, rounded to 2 digits, read-out: Notch 1 (IC50)
[8] = HeLa cells, luciferase, rounded to 2 digits, read-out: Notch 3 (IC50)

| Compound | IC50 (Notch 1; [3]) [nM] | IC50 (Notch 3; [4]) [nM] | 0.5 μM HLM (% Remaining) [1, 5] [%] | 0.5 μM MsLM (% Remaining) [2, 6] [%] | IC50 (Notch 1; [7]) [nM] | IC50 (Notch 3; [8]) [nM] | 0.5 μM HLM (% Remaining) ([1]; human, microsomes, 10 min, 0.5 µM, pH 7.4) [%] | 0.5 μM MsLM (% Remaining) ([2]; mouse, microsomes, 10 min, 0.5 µM, pH 7.4) [%] |
| --- | --- | --- | --- | --- | --- | --- | --- | --- |
| CC(C)C[C@@H](C(=O)N[C@H]1N=C(c2ccccc2)c2ccccc2N(C)C1=O)[C@H](CCC(F)(F)F)C(N)=O [Comparative Compound 22, reference compound] | 64 | 48 | 39 | 15 |  |  |  |  |
| C=CC[C@H](C(N)=O)[C@@H](CC(C)C)C(=O)N[C@H]1N=C(c2ccccc2)c2cc(Cl)ccc2N(C)C1=O [Comparative Compound 23, reference compound] |  |  | 19 | 9.0 |  |  |  |  |
| CCCC[C@H](C(N)=O)[C@@H](CC(C)C)C(=O)N[C@H]1N=C(c2ccc(Cl)cc2)c2ccccc2N(C)C1=O [Comparative Compound 24, reference compound] |  |  | 21 | 13 |  |  |  |  |
| C=CC[C@H](C(N)=O)[C@@H](CC(C)C)C(=O)N[C@H]1N=C(c2ccccc2)c2ccccc2N(CCC)C1=O [Comparative Compound 25, reference compound] |  |  | 2.7 | 0.18 |  |  |  |  |
| CN1C(=O)[C@@H](NC(=O)[C@H](CC(F)(F)F)[C@H](CCC(F)(F)F)C(N)=O)N=C(c2ccccc2)c2ccccc21 [Example 3, (2R,3S)—N-((3S)-1-Methyl-2-oxo-5-phenyl-2,3-dihydro-1H-1,4-benzodiazepin-3-yl)-2-(2,2,2-trifluoroethyl)-3-(3,3,3-trifluoropropyl)succinamide] | 3.1 | 4.7 | 84 | 91 |  |  |  |  |
| CN1C(=O)[C@@H](NC(=O)[C@H](CCC(F)(F)F)[C@H](CC(F)(F)F)C(N)=O)N=C(c2ccccc2)c2ccccc21 [Example 4, (2R,3S)—N-((3S)-1-Methyl-2-oxo-5-phenyl-2,3-dihydro-1H-1,4-benzodiazepin-3-yl)-3-(2,2,2-trifluoroethyl)-2-(3,3,3-trifluoropropyl)succinamide] | 1.5 | 2.5 | 100 | 91 |  |  |  |  |
| [2H]C([2H])([2H])N1C(=O)[C@@H](NC(=O)[C@H](CCC(F)(F)F)[C@H](CCC(F)(F)F)C(N)=O)N=C(c2ccccc2)c2ccccc21 [Example 5, (2R,3S)—N-((3S)-1-(^2H3)Methyl-2-oxo-5-phenyl-2,3-dihydro-1H-1,4-benzodiazepin-3-yl)-2,3-bis(3,3,3-trifluoropropyl)succinamide] |  |  |  |  | 1.2 | 5.9 | 100 | 98 |
| CN1C(=O)[C@@H](NC(=O)[C@H](CCC(F)(F)F)[C@H](CCC(F)(F)F)C(N)=O)N=C(c2ccccc2)c2cc(Cl)ccc21 [Example 6, (2R,3S)—N-((3S)-7-chloro-1-methyl-2-oxo-5-phenyl-2,3-dihydro-1H-1,4-benzodiazepin-3-yl)-2,3-bis(3,3,3-trifluoropropyl)succinamide] | 6.5 | 10 | 100 | 100 |  |  |  |  |
| COc1ccc2c(c1)N(C)C(=O)[C@@H](NC(=O)[C@H](CCC(F)(F)F)[C@H](CCC(F)(F)F)C(N)=O)N=C2c1ccccc1 [Example 7, (2R,3S)—N-((3S)-8-methoxy-1-methyl-2-oxo-5-phenyl-2,3-dihydro-1H-1,4-benzodiazepin-3-yl)-2,3-bis(3,3,3-trifluoropropyl)succinamide] |  |  | 93 | 72 | 1.5 | 2.8 |  |  |
| CN1C(=O)[C@@H](NC(=O)[C@H](CCC(F)(F)F)[C@H](CCC(F)(F)F)C(N)=O)N=C(c2ccccc2)c2ccc(F)cc21 [Example 8, (2R,3S)—N-((3S)-8-fluoro-1-methyl-2-oxo-5-phenyl-2,3-dihydro-1H-1,4-benzodiazepin-3-yl)-2,3-bis(3,3,3-trifluoropropyl)succinamide] | 4.9 | 8.1 | 96 | 100 |  |  |  |  |
| COc1ccc2c(c1)C(c1ccccc1)=N[C@H](NC(=O)[C@H](CCC(F)(F)F)[C@H](CCC(F)(F)F)C(N)=O)C(=O)N2C [Example 9, (2R,3S)—N-((3S)-7-methoxy-1-methyl-2-oxo-5-phenyl-2,3-dihydro-1H-1,4-benzodiazepin-3-yl)-2,3-bis(3,3,3-trifluoropropyl)succinamide] | 4.4 | 8.2 | 100 | 87 |  |  |  |  |
| CN1C(=O)[C@@H](NC(=O)[C@H](CCC(F)(F)F)[C@H](CCC(F)(F)F)C(N)=O)N=C(c2ccccc2)c2cc(F)ccc21 [Example 10, (2R,3S)—N-((3S)-7-fluoro-1-methyl-2-oxo-5-phenyl-2,3-dihydro-1H-1,4-benzodiazepin-3-yl)-2,3-bis(3,3,3-trifluoropropyl)succinamide] | 2.9 | 4.6 | 96 | 98 |  |  |  |  |
| CN1C(=O)[C@@H](NC(=O)[C@H](CCC(F)(F)F)[C@H](CCC(F)(F)F)C(N)=O)N=C(c2ccccc2)c2ccc(Cl)cc21 [Example 11, (2R,3S)—N-((3S)-8-chloro-1-methyl-2-oxo-5-phenyl-2,3-dihydro-1H-1,4-benzodiazepin-3-yl)-2,3-bis(3,3,3-trifluoropropyl)succinamide] | 1.3 | 2 | 97 | 98 |  |  |  |  |
| COc1cccc2c1NC(=O)[C@@H](NC(=O)[C@H](CCC(F)(F)F)[C@H](CCC(F)(F)F)C(N)=O)N=C2c1ccccc1 [Example 12, (2R,3S)—N-((3S)-9-methoxy-2-oxo-5-phenyl-2,3-dihydro-1H-1,4-benzodiazepin-3-yl)-2,3-bis(3,3,3-trifluoropropyl)succinamide] | 2.5 | 4.2 | 100 | 100 |  |  |  |  |
| COc1ccc2c(c1)NC(=O)[C@@H](NC(=O)[C@H](CCC(F)(F)F)[C@H](CCC(F)(F)F)C(N)=O)N=C2c1ccccc1 [Example 13, (2R,3S)—N-((3S)-8-methoxy-2-oxo-5-phenyl-2,3-dihydro-1H-1,4-benzodiazepin-3-yl)-2,3-bis(3,3,3-trifluoropropyl)succinamide] |  |  | 100 | 97 | 2.1 | 3.8 |  |  |
| COc1ccc2c(c1)C(c1ccccc1)=N[C@H](NC(=O)[C@H](CCC(F)(F)F)[C@H](CCC(F)(F)F)C(N)=O)C(=O)N2 [Example 14, (2R,3S)—N-((3S)-7-methoxy-2-oxo-5-phenyl-2,3-dihydro-1H-1,4-benzodiazepin-3-yl)-2,3-bis(3,3,3-trifluoropropyl)succinamide] |  |  | 100 | 95 | 5.2 | 13 |  |  |
| COc1c(C#N)ccc2c1NC(=O)[C@@H](NC(=O)[C@H](CCC(F)(F)F)[C@H](CCC(F)(F)F)C(N)=O)N=C2c1ccccc1 [Example 15, (2R,3S)—N-((3S)-8-cyano-9-methoxy-2-oxo-5-phenyl-2,3-dihydro-1H-1,4-benzodiazepin-3-yl)-2,3-bis(3,3,3-trifluoropropyl)succinamide] | 12 | 16 | 100 | 93 |  |  |  |  |
| NC(=O)[C@@H](CCC(F)(F)F)[C@@H](CCC(F)(F)F)C(=O)N[C@H]1N=C(c2ccccc2)c2ccc(Cl)c(Cl)c2NC1=O [Example 16, (2R,3S)—N-((3S)-8,9-dichloro-2-oxo-5-phenyl-2,3-dihydro-1H-1,4-benzodiazepin-3-yl)-2,3-bis(3,3,3-trifluoropropyl)succinamide] | 4.2 | 6.4 | 80 | 91 |  |  |  |  |
| NC(=O)[C@@H](CCC(F)(F)F)[C@@H](CCC(F)(F)F)C(=O)N[C@H]1N=C(c2ccccc2)c2cccc(F)c2NC1=O [Example 17, (2R,3S)—N-((3S)-9-fluoro-2-oxo-5-phenyl-2,3-dihydro-1H-1,4-benzodiazepin-3-yl)-2,3-bis(3,3,3-trifluoropropyl)succinamide] | 3.6 | 7.1 | 100 | 96 |  |  |  |  |
| NC(=O)[C@@H](CCC(F)(F)F)[C@@H](CCC(F)(F)F)C(=O)N[C@H]1N=C(c2ccccc2)c2cccc(Cl)c2NC1=O [Example 18, (2R,3S)—N-((3S)-9-chloro-2-oxo-5-phenyl-2,3-dihydro-1H-1,4-benzodiazepin-3-yl)-2,3-bis(3,3,3-trifluoropropyl)succinamide] | 0.53 | 2.3 | 100 | 100 |  |  |  |  |
| NC(=O)[C@@H](CCCC(F)(F)F)[C@@H](CCC(F)(F)F)C(=O)N[C@H]1N=C(c2ccccc2)c2ccccc2NC1=O [Example 19, (2R,3S)—N-((3S)-2-Oxo-5-phenyl-2,3-dihydro-1H-1,4-benzodiazepin-3-yl)-3-(4,4,4-trifluorobutyl)-2-(3,3,3-trifluoropropyl)succinamide] | 1.3 | 3.8 | 96 | 97 |  |  |  |  |
| COc1ccc2c(c1)NC(=O)[C@@H](NC(=O)[C@H](CCC(F)(F)F)[C@H](CCCC(F)(F)F)C(N)=O)N=C2c1ccccc1 [Example 20, (2R,3S)—N1-((3S)-8-Methoxy-2-oxo-5-phenyl-2,3-dihydro-1H-1,4-benzodiazepin-3-yl)-3-(4,4,4-trifluorobutyl)-2-(3,3,3-trifluoropropyl)succinamide] | 2.9 | 4.2 | 100 | 100 |  |  |  |  |
